The text below walks through data of patent publication US20260325561A1, “4'-SUBSTITUTED NUCLEOSIDES AND NUCLEOTIDES AS ANTIVIRAL AGENTS” (THE SCRIPPS RESEARCH INSTITUTE, priority 2023, published 2026).

Where only a bound is given, the exact number is not on record here.

In one data set the test system is DENV-2. Description: microbe, parasite or virus in culture. In kind it is cell-based, DENV-2 16681. Conditions: Dengue virus, DENV2, HepG2, 24 h, read-out: DENV-2 / HepG2 EC50.
Another data set has as its system SARS-CoV-2. Description: microbe, parasite or virus in culture. The format is cell-based, SARS-CoV-2 strain USA-WA1/2020. Conditions: Severe acute respiratory syndrome coronavirus 2, HeLa-ACE2, 24 h, read-out: SARS-CoV-2 / HeLa-ACE2 EC50.
Another data set relates to RSV A2. The data set can be described thus: microbe, parasite or virus in culture. Conditions: human respiratory syncytial virus, HEp-2, 72 h, read-out: RSV A2 / Hep2 EC50. The format is cell-based.
A further data set has as its system HRV 14. The data set can be described thus: microbe, parasite or virus in culture. In kind it is cell-based, Human Rhinovirus 14 strain 1059. Conditions: Rhinovirus B, H1-HeLa, 48 h, read-out: HRV / H1 HeLa B 14 EC50.
In a further data set the test system is HRV 16. Description: microbe, parasite or virus in culture. The format is cell-based, Human Rhinovirus 16 strain 11757. Conditions: Rhinovirus A, H1-HeLa, 48 h, read-out: HRV / H1 HeLa A16 EC50.
In a further data set the test system is ZIKV. The data set can be described thus: microbe, parasite or virus in culture. In kind it is cell-based, ZIKV MR766. Conditions: Zika virus, HepG2, 24 h, read-out: ZIKV / HepG2 EC50.
The subject of a further data set is YFV. The data set can be described thus: microbe, parasite or virus in culture. The format is cell-based, YFV strain 17D. Conditions: Yellow fever virus, HepG2, 24 h, read-out: YFV / HepG2 EC50.
The next data set relates to CHIKV. Description: microbe, parasite or virus in culture. The format is cell-based, CHIKV strain 181/25. Conditions: Chikungunya virus, HepG2, 24 h, read-out: CHIKV / HepG2 EC50.
The subject of another data set is HCoV-OC43. The data set can be described thus: microbe, parasite or virus in culture. The format is cell-based, Human Coronavirus. Conditions: Betacoronavirus 1, OC43, HCT-8, 48 h, read-out: HCoV-OC43/HCT-8 EC50.
A further data set has as its system HCoV-229E. Description: microbe, parasite or virus in culture. The format is cell-based. Conditions: Human coronavirus 229E, MRC5, 120 h, read-out: HCoV-229E/MRC5 EC50.
The subject of a further data set is HCMV. The data set can be described thus: HCMV/HFF antiviral assay. The format is cell-based. Conditions: Human betaherpesvirus 5, HFF.
The next data set in a line: Cytotoxicity, HFF. Conditions: human, hff cells; read-out: HCMV/HFF CC50. In kind it is cell-based.
A short description of data set [1]: in vitro. Conditions: human, hepg2 cells.
Data set [2] in a line: in vitro. Conditions: human, hela-ace2 cells.
Data set [3] can be described thus: in vitro. Conditions: human, hep2 cells.
The nature of data set [4]: in vitro. Conditions: human, h1 hela cells.
Data set [5] can be described thus: in vitro. Conditions: human, hct-8 cells.
A short description of data set [6]: in vitro. Conditions: human, mrc5 cells.
Data set [7] relates to dengue. Conditions: cited from earlier work.
In data set [8] the test system is dengue 2′-0-methyltransferase NS5 domain. Conditions: role: inhibitor; cited from earlier work.
In data set [9] the test system is dengue. Conditions: cited from earlier work. The source holds these as a separate data set.
The test system of data set [10] is dengue. Conditions: cited from earlier work. This is another data set of the same source.
The conditions of data set [11]: mouse or rhesus monkey model; cited from earlier work.
For the next data set, the system named is RNA virus infections. Conditions: cited from earlier work.

Take `OC[C@@]1(F)O[C@@H](n2ccc3c(Cl)ncnc32)[C@H](O)[C@@H]1O` [Example 4, (2S,3S,4R,5R)-5-(4-chloro-7H-pyrrolo[2,3-d]pyrimidin-7-yl)-2-fluoro-2-(hydroxymethyl)tetrahydrofuran-3,4-diol]: the EC50 with DENV-2 was less than 100 nM; with SARS-CoV-2, 1000 to 10000 nM; in the data set with RSV A2, 100 to 1000 nM; in the data set on HRV 14 it was 100 to 1000 nM; in the data set with HRV 16, 100 to 1000 nM; in the data set with ZIKV it was 100 to 1000 nM. Further, the EC50 in the data set with YFV is less than 100 nM; in the data set with CHIKV, 100 to 1000 nM; in the data set with HCoV-OC43, 100 to 1000 nM; in the data set with HCoV-229E, more than 10000 nM; in the data set with HCMV, more than 10000 nM. The CC50 in the data set “Cytotoxicity, HFF” was 10000 to 99000 nM; in “in vitro [3]”, 10000 to 99000 nM; in “in vitro [4]”, 10000 to 99000 nM; in “in vitro [5]”, 10000 to 99000 nM; in “in vitro [6]”, more than 99000 nM. In addition, the CC50 at 72 h in the data set “in vitro [1]” lay within 10000 to 99000 nM. In the data set “in vitro [2]”, this molecule came in with a CC50 at 24 h of 10000 to 99000 nM.
With `NC(=O)c1cn([C@@H]2O[C@](F)(CO)[C@@H](O)[C@H]2O)c2ncncc12` [Example 24, 7-((2R,3R,4S,5S)-5-fluoro-3,4-dihydroxy-5-(hydroxymethyl)tetrahydrofuran-2-yl)-7H-pyrrolo[2,3-d]pyrimidine-5-carboxamide], the EC50 with DENV-2 is less than 100 nM; with SARS-CoV-2, 100 to 1000 nM; in the data set with RSV A2, 100 to 1000 nM; in the data set with HRV 14, 1000 to 10000 nM; in the data set on HRV 16, more than 10000 nM; in the data set on ZIKV, 100 to 1000 nM. For the same molecule, the EC50 with YFV is 100 to 1000 nM; with HCoV-OC43, 100 to 1000 nM; in the data set with HCoV-229E, more than 10000 nM; with HCMV, more than 10000 nM. The CC50 in “Cytotoxicity, HFF” is 10000 to 99000 nM; in the data set “in vitro [3]”, 10000 to 99000 nM; in the data set “in vitro [4]” it was 10000 to 99000 nM; in the data set “in vitro [5]”, 10000 to 99000 nM; in “in vitro [6]” it was more than 99000 nM. The CC50 at 72 h in the data set “in vitro [1]” was 1000 to 10000 nM. In the data set “in vitro [2]”, the CC50 at 24 h is 1000 to 10000 nM.
On to `OC[C@@]1(F)O[C@@H](n2cc(Br)c3cncnc32)[C@H](O)[C@@H]1O` [Example 25, (2S,3S,4R,5R)-5-(5-bromo-7H-pyrrolo[2,3-d]pyrimidin-7-yl)-2-fluoro-2-(hydroxymethyl)tetrahydrofuran-3,4-diol], for which the EC50 with DENV-2 is less than 100 nM; with SARS-CoV-2, 100 to 1000 nM; in the data set with RSV A2 it was 100 to 1000 nM; in the data set with HRV 14, more than 10000 nM; in the data set with HRV 16, more than 10000 nM; in the data set on ZIKV, less than 100 nM. In addition, the EC50 with YFV is less than 100 nM; in the data set with HCoV-OC43, 100 to 1000 nM; with HCoV-229E, more than 10000 nM; in the data set with HCMV, 1000 to 10000 nM. Also, the CC50 was more than 99000 nM in “Cytotoxicity, HFF”; 10000 to 99000 nM in the data set “in vitro [3]”; 1000 to 10000 nM in the data set “in vitro [4]”; less than 1000 nM in “in vitro [5]”; more than 99000 nM in “in vitro [6]”. Also, the CC50 at 72 h in the data set “in vitro [1]” is less than 1000 nM. The molecule further gave a CC50 at 24 h in the data set “in vitro [2]” of less than 1000 nM.
Regarding `NC(=O)c1ncn([C@@H]2O[C@H](CO)[C@@H](O)[C@H]2O)n1` [Ribavirin], the “activity against dengue in tissue culture” value with dengue [7] is “works against dengue in tissue culture”. In [8], the “inhibition of dengue 2′-0-methyltransferase NS5 domain” value was “inhibiting”. In addition, the “protection against dengue, mouse model” value in the data set with dengue [9] is “did not show protection”. Also, in the data set with dengue [10], the “protection against dengue, rhesus monkey model” value was “did not show protection”. Further, the adverse effects induced entry in data set [11] was “induced anemia and thrombocytosis”. For the same molecule, in the data set with RNA virus infections, the “effect against a range of RNA virus infections” value is “effective”.
